The values below come from PMC7044277 (Nature Communications, 2020).

Assay type in all cases: cell-based
Assay [1] has as its target T1, 320 non-olfactory GPCRs (Homo sapiens, UniProt Q96G91).
T1 construct: expressed in transfected cells; host or cells: HTLA cells
As to conditions: receptor P2RY11; replicate values, Fig_4g.

The target in assay [2] is T2, 320 non-olfactory GPCRs (Homo sapiens, UniProt Q15391).
T2 construct: expressed in transfected cells; host or cells: HTLA cells
As to conditions: receptor P2RY14; replicate values, Fig_4g.

For assay [3], the target named is T3, 320 non-olfactory GPCRs (Homo sapiens, UniProt Q9Y5X5).
T3 construct: expressed in transfected cells; host or cells: HTLA cells
As to conditions: receptor NPFF2; replicate values, Fig_4g.

Assay [4] concerns the target T4, 320 non-olfactory GPCRs (Homo sapiens, UniProt P35408).
T4 construct: expressed in transfected cells; host or cells: HTLA cells
As to conditions: receptor PTGER4; replicate values, Fig_4g.

The structures appear in SMILES notation. Where “and” joins values, the source holds several entries; their conditions need not be identical. Equal entries are not always repeated.
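Also: fold over basal response of each receptor without drug.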

T1 sequence (Q96G91 whole entry): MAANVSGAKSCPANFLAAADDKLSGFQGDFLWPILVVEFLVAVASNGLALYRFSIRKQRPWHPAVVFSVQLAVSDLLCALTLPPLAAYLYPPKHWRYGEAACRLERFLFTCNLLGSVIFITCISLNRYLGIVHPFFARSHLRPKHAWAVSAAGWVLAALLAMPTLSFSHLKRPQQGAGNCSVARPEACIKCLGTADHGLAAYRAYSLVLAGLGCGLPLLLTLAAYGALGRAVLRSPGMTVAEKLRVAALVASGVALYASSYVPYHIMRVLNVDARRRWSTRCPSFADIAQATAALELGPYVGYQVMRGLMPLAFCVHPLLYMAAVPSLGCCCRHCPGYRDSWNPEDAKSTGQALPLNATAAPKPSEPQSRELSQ
T2 sequence (Q15391 whole entry): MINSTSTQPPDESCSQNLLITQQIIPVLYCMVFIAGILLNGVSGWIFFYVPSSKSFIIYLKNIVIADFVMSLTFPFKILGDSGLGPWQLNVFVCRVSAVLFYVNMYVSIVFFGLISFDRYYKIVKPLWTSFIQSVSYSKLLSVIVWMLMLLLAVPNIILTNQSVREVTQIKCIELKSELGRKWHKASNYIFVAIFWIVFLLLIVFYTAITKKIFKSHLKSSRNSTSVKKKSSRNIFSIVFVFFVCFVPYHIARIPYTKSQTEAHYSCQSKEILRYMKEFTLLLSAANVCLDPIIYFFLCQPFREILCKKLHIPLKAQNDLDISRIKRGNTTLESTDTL
T3 sequence (Q9Y5X5 whole entry): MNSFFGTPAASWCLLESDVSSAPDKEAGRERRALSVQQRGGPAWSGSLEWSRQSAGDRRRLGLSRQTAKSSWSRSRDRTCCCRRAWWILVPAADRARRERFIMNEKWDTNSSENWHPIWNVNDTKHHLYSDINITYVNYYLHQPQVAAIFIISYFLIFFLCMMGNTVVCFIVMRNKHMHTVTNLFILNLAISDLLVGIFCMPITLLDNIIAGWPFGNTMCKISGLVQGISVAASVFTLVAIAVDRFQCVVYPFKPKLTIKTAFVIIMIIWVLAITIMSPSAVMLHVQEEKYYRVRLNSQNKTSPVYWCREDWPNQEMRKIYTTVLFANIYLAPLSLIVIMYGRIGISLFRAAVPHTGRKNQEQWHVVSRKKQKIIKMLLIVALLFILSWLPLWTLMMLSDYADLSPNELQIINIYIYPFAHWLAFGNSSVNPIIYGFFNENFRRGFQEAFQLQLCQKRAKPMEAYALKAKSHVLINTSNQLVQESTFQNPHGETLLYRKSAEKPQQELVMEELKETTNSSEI
T4 sequence (P35408 whole entry): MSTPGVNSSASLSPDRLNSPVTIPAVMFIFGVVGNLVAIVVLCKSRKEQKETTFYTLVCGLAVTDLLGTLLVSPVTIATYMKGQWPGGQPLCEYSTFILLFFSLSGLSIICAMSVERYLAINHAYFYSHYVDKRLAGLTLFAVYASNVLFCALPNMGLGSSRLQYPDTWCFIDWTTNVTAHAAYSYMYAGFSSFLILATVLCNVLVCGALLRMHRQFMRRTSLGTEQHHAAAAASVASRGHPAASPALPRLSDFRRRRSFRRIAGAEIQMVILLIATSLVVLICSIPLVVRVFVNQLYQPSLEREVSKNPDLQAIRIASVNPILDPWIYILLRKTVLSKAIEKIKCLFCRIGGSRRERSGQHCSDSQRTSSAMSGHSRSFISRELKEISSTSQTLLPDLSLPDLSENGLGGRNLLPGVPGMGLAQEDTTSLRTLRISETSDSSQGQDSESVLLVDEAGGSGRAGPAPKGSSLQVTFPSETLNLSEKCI

In the case of `CCOc1cccc2cc(C(C)NCC3(O)CCCCC3)oc12` (stereo not shown) [O4LE6], the “GPCRome agonism screen response” value in assay [1] was 1.047 and 1.146 and 1.063 and 1.471; in assay [2] it was 0.8976 and 0.7161 and 0.7434 and 0.9997; in assay [3], 1.684 and 1.1 and 0.9323 and 0.6942; in assay [4] it was 2.508 and 1.456 and 1.732 and 0.428.
